Numbered stars: 1 amine (or outer) side, 2 acyl side, 3 side chain; on linkers, the order of the positions; unused ones are H or OH. Square brackets hold non-standard residues; d marks the D form. Side chains are listed from the residue outwards. Peptide text beside a SMILES is read from it. * marks the point of attachment. C18 diacid = O=C(O)CCCCCCCCCCCCCCCCC(=O)*; γGlu = O=C(O)[C@H](CCC(=O)[*:2])N[*:1]; AEEA = NCCOCCOCC(=O)O; Aib = CC(C)(N)C(=O)O

For the experiment, the target named is T1, GC receptor (Homo sapiens, UniProt P47871).
T1 construct: expressed in transfected cells; host or cells: HEK293 cells
T1 sequence (P47871 26-477): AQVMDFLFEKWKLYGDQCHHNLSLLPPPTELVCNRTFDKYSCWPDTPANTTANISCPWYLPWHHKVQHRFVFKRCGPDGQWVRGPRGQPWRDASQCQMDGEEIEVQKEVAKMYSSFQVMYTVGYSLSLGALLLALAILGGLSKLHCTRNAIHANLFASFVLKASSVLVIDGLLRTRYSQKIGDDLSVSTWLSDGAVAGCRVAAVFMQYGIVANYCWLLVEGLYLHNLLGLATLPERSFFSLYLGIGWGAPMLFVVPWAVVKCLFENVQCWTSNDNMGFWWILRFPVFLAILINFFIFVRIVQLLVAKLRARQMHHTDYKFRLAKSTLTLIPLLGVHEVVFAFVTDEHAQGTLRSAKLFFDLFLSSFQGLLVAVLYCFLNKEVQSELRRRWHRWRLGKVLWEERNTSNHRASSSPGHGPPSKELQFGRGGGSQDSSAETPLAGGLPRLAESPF
Nature of the experiment: GC receptor mediated cAMP production in vitro (HEK293 cells transfected with GC receptor). It is filed as cell-based. Conditions: 20 min at 37° C., read-out: GCGR (nM EC50). From the text: The medium was removed, the cells were lysed, and cAMP values were detected referring to the detection method described for the assay kit.
For the compound `CCCCCCCCCCCCCCCC(=O)N[C@@H](CCC(=O)N[C@@H](CCC(=O)NCCCC[C@H](NC(=O)[C@H](CC(=O)O)NC(=O)[C@H](CO)NC(=O)[C@@H](NC(=O)[C@H](Cc1ccccc1)NC(=O)[C@@H](NC(=O)CNC(=O)[C@H](CCC(N)=O)NC(=O)C(C)(C)NC(=O)[C@@H](N)Cc1c[nH]cn1)[C@@H](C)O)[C@@H](C)O)C(=O)N[C@@H](CO)C(=O)N[C@@H](CCCCN)C(=O)N[C@@H](Cc1ccc(O)cc1)C(=O)N[C@@H](CC(C)C)C(=O)N[C@@H](CCC(=O)O)C(=O)N[C@@H](CCC(=O)O)C(=O)N[C@@H](CCCCN)C(=O)N[C@@H](CCCNC(=N)N)C(=O)N[C@@H](C)C(=O)N[C@@H](CCCCN)C(=O)N[C@@H](CCC(=O)O)C(=O)N[C@@H](Cc1ccccc1)C(=O)N[C@H](C(=O)N[C@@H](CCC(=O)O)C(=O)N[C@@H](Cc1c[nH]c2ccccc12)C(=O)N[C@@H](CC(C)C)C(=O)N[C@@H](CCC(=O)O)C(=O)N[C@@H](C)C(=O)NCC(=O)NCC(=O)N1CCC[C@H]1C(=O)N[C@@H](CO)C(=O)N[C@@H](CO)C(=O)NCC(N)=O)[C@@H](C)CC)C(=O)O)C(=O)O` [Compound 11] (HELM PEPTIDE1{H.[Aib].Q.G.T.F.T.S.D.K.S.K.Y.L.E.E.K.R.A.K.E.F.I.E.W.L.E.A.G.G.P.S.S.G.[am]}|PEPTIDE2{[CCCCCCCCCCCCCCCC(=O)[*:2]].[gGlu].[gGlu]}$PEPTIDE1,PEPTIDE2,10:R3-3:R2$$$V2.0; N-terminus assumed), the EC50 – broadly, the concentration needed to bring the measured effect to its halfway point – was 1.73 nM.
On to `CC[C@H](C)[C@H](NC(=O)[C@H](Cc1ccccc1)NC(=O)[C@H](CCC(=O)O)NC(=O)[C@H](CCCCNC(=O)COCCOCCNC(=O)COCCOCCNC(=O)CC[C@H](NC(=O)CCCCCCCCCCCCCCCCC(=O)O)C(=O)O)NC(=O)[C@H](C)NC(=O)[C@H](CCCNC(=N)N)NC(=O)[C@H](CCCCN)NC(=O)[C@H](CCC(=O)O)NC(=O)[C@H](CC(=O)O)NC(=O)[C@H](CC(C)C)NC(=O)[C@H](Cc1ccc(O)cc1)NC(=O)[C@H](CCCCN)NC(=O)[C@H](CO)NC(=O)[C@H](Cc1ccc(O)cc1)NC(=O)[C@H](CC(=O)O)NC(=O)[C@H](CO)NC(=O)[C@@H](NC(=O)[C@H](Cc1ccccc1)NC(=O)[C@@H](NC(=O)CNC(=O)[C@H](CCC(N)=O)NC(=O)C(C)(C)NC(=O)[C@@H](N)Cc1c[nH]cn1)[C@@H](C)O)[C@@H](C)O)C(=O)N[C@@H](C)C(=O)N[C@@H](Cc1c[nH]c2ccccc12)C(=O)N[C@@H](CC(C)C)C(=O)N[C@@H](CCC(=O)O)C(=O)N[C@@H](C)C(=O)NCC(=O)NCC(=O)N1CCC[C@H]1C(=O)N[C@@H](CO)C(=O)N[C@@H](CO)C(=O)NCC(N)=O` [Compound 50] (H-H[Aib]QGTFTSDYSKYLDEKRAK([AEEA-AEEA-γGlu-C18 diacid])EFIAWLEAGGPSSG-NH2; N-terminus assumed), for which the EC50 worked out at 0.048 nM.
For `CC[C@H](C)[C@H](NC(=O)[C@H](Cc1ccccc1)NC(=O)[C@H](CCC(=O)O)NC(=O)[C@H](CCCCNC(=O)COCCOCCNC(=O)COCCOCCNC(=O)CC[C@H](NC(=O)CCCCCCCCCCCCCCCCC(=O)O)C(=O)O)NC(=O)[C@H](C)NC(=O)[C@H](C)NC(=O)[C@H](CCCNC(=N)N)NC(=O)[C@H](CCC(=O)O)NC(=O)[C@H](CC(=O)O)NC(=O)[C@H](CC(C)C)NC(=O)[C@H](Cc1ccc(O)cc1)NC(=O)[C@H](CCCCN)NC(=O)[C@H](CO)NC(=O)[C@H](Cc1ccc(O)cc1)NC(=O)[C@H](CC(=O)O)NC(=O)[C@H](CO)NC(=O)[C@@H](NC(=O)[C@H](Cc1ccccc1)NC(=O)[C@@H](NC(=O)CNC(=O)[C@H](CCC(N)=O)NC(=O)[C@H](CO)NC(=O)[C@@H](N)Cc1c[nH]cn1)[C@@H](C)O)[C@@H](C)O)C(=O)N[C@@H](C)C(=O)N[C@@H](Cc1c[nH]c2ccccc12)C(=O)N[C@@H](CC(C)C)C(=O)N[C@@H](CCC(=O)O)C(=O)NCC(=O)NCC(=O)N1CCC[C@H]1C(=O)N[C@@H](CO)C(=O)N[C@@H](CO)C(=O)NCC(N)=O` [Compound 38] (H-HSQGTFTSDYSKYLDERAAK([AEEA-AEEA-γGlu-C18 diacid])EFIAWLEGGPSSG-NH2; N-terminus assumed), the EC50 came to 0.102 nM.
For `CC(C)C[C@H](NC(=O)[C@H](Cc1c[nH]c2ccccc12)NC(=O)[C@H](CCC(=O)O)NC(=O)[C@@H](NC(=O)[C@H](Cc1ccccc1)NC(=O)[C@H](CCC(=O)O)NC(=O)[C@H](CCCCNC(=O)COCCOCCNC(=O)COCCOCCNC(=O)CC[C@H](NC(=O)CCCCCCCCCCCCCCCCC(=O)O)C(=O)O)NC(=O)[C@H](C)NC(=O)[C@H](C)NC(=O)[C@H](CCCNC(=N)N)NC(=O)[C@H](CCC(=O)O)NC(=O)[C@H](CCC(=O)O)NC(=O)[C@H](CC(C)C)NC(=O)[C@H](Cc1ccc(O)cc1)NC(=O)[C@H](CCCCN)NC(=O)[C@H](CO)NC(=O)[C@H](Cc1ccc(O)cc1)NC(=O)[C@H](CC(=O)O)NC(=O)[C@H](CO)NC(=O)[C@@H](NC(=O)[C@H](Cc1ccccc1)NC(=O)[C@@H](NC(=O)CNC(=O)[C@H](CCC(N)=O)NC(=O)C(C)(C)NC(=O)[C@@H](N)Cc1c[nH]cn1)[C@@H](C)O)[C@@H](C)O)C(C)C)C(=O)N[C@@H](CCC(=O)O)C(=O)NCC(=O)NCC(=O)N1CCC[C@H]1C(=O)N[C@@H](CO)C(=O)N[C@@H](CO)C(=O)NCC(N)=O` [Compound 32] (H-H[Aib]QGTFTSDYSKYLEERAAK([AEEA-AEEA-γGlu-C18 diacid])EFVEWLEGGPSSG-NH2; N-terminus assumed), the EC50 worked out at 0.077 nM.
For the compound `CC[C@H](C)[C@H](NC(=O)[C@H](Cc1ccccc1)NC(=O)[C@H](CCC(=O)O)NC(=O)[C@H](CCCCNC(=O)COCCOCCNC(=O)COCCOCCNC(=O)CC[C@H](NC(=O)CCCCCCCCCCCCCCCCC(=O)O)C(=O)O)NC(=O)[C@H](C)NC(=O)[C@H](CCCCN)NC(=O)[C@H](CCCNC(=N)N)NC(=O)[C@H](CCC(=O)O)NC(=O)[C@H](CCC(=O)O)NC(=O)[C@H](CC(C)C)NC(=O)[C@H](Cc1ccc(O)cc1)NC(=O)[C@H](CCCCN)NC(=O)[C@H](CO)NC(=O)[C@H](Cc1ccc(O)cc1)NC(=O)[C@H](CC(=O)O)NC(=O)[C@H](CO)NC(=O)[C@@H](NC(=O)[C@H](Cc1ccccc1)NC(=O)[C@@H](NC(=O)CNC(=O)[C@H](CCC(N)=O)NC(=O)C(C)(C)NC(=O)[C@@H](N)Cc1c[nH]cn1)[C@@H](C)O)[C@@H](C)O)C(=O)N[C@@H](C)C(=O)N[C@@H](Cc1c[nH]c2ccccc12)C(=O)N[C@@H](CC(C)C)C(=O)N[C@@H](CCC(=O)O)C(=O)N[C@@H](C)C(=O)NCC(=O)NCC(=O)N1CCC[C@H]1C(=O)N[C@@H](CO)C(=O)N[C@@H](CO)C(=O)NCC(N)=O` [Compound 44] (H-H[Aib]QGTFTSDYSKYLEERKAK([AEEA-AEEA-γGlu-C18 diacid])EFIAWLEAGGPSSG-NH2; N-terminus assumed), the EC50 is 0.219 nM.
For `CC(C)C[C@H](NC(=O)[C@H](Cc1c[nH]c2ccccc12)NC(=O)[C@H](C)NC(=O)[C@@H](NC(=O)[C@H](Cc1ccccc1)NC(=O)[C@H](CCC(=O)O)NC(=O)[C@H](CCCCNC(=O)COCCOCCNC(=O)COCCOCCNC(=O)CC[C@H](NC(=O)CCCCCCCCCCCCCCCCC(=O)O)C(=O)O)NC(=O)[C@H](C)NC(=O)[C@H](CCCNC(=N)N)NC(=O)[C@H](CCCCN)NC(=O)[C@H](CCC(=O)O)NC(=O)[C@H](CCC(=O)O)NC(=O)[C@H](CC(C)C)NC(=O)[C@H](Cc1ccc(O)cc1)NC(=O)[C@H](CCCCN)NC(=O)[C@H](CO)NC(=O)[C@H](Cc1ccc(O)cc1)NC(=O)[C@H](CC(=O)O)NC(=O)[C@H](CO)NC(=O)[C@@H](NC(=O)[C@H](Cc1ccccc1)NC(=O)[C@@H](NC(=O)CNC(=O)[C@H](CCC(N)=O)NC(=O)C(C)(C)NC(=O)[C@@H](N)Cc1c[nH]cn1)[C@@H](C)O)[C@@H](C)O)C(C)C)C(=O)N[C@@H](CCC(=O)O)C(=O)NCC(=O)NCC(=O)N1CCC[C@H]1C(=O)N[C@@H](CO)C(=O)N[C@@H](CO)C(=O)NCC(N)=O` [Compound 74] (H-H[Aib]QGTFTSDYSKYLEEKRAK([AEEA-AEEA-γGlu-C18 diacid])EFVAWLEGGPSSG-NH2; N-terminus assumed) the value was 0.725 nM.
`CC(C)C[C@H](NC(=O)[C@H](Cc1c[nH]c2ccccc12)NC(=O)[C@H](C)NC(=O)[C@@H](NC(=O)[C@H](Cc1ccccc1)NC(=O)[C@H](CCC(=O)O)NC(=O)[C@H](CCCCN)NC(=O)[C@H](C)NC(=O)[C@H](C)NC(=O)[C@H](CCCNC(=N)N)NC(=O)[C@H](CCC(=O)O)NC(=O)[C@H](CCC(=O)O)NC(=O)[C@H](CC(C)C)NC(=O)[C@H](Cc1ccc(O)cc1)NC(=O)[C@H](CCCCN)NC(=O)[C@H](CO)NC(=O)[C@H](CCCCNC(=O)COCCOCCNC(=O)COCCOCCNC(=O)CC[C@H](NC(=O)CCCCCCCCCCCCCCCCC(=O)O)C(=O)O)NC(=O)[C@H](CC(=O)O)NC(=O)[C@H](CO)NC(=O)[C@@H](NC(=O)[C@H](Cc1ccccc1)NC(=O)[C@@H](NC(=O)CNC(=O)[C@H](CCC(N)=O)NC(=O)C(C)(C)NC(=O)[C@@H](N)Cc1c[nH]cn1)[C@@H](C)O)[C@@H](C)O)C(C)C)C(=O)N[C@@H](CCCCN)C(=O)N[C@@H](CCC(=O)O)C(=O)NCC(=O)NCC(=O)N1CCC[C@H]1C(=O)N[C@@H](CO)C(=O)N[C@@H](CO)C(=O)NCC(N)=O` [Compound 17] (H-H[Aib]QGTFTSDK([AEEA-AEEA-γGlu-C18 diacid])SKYLEERAAKEFVAWLKEGGPSSG-NH2; N-terminus assumed): the EC50 turned out to be 0.486 nM.

Source of the values: US12257287B2, “Glucagon-derived peptide and use thereof” (Tianjin Institute of Pharmaceutical Research Co., Ltd., priority 2018, dated 2025).
